# From patent US10646565B2, “Treatment of alzheimer'S disease (AD) with an aluminum salt” (AFFIRIS AG, priority 2014, dated 2020)
# “Also recorded” adds a separate entry of the source.
# Tests used:
# [1] = system: patients with early AD; assay: AFF006 clinical trial: adapted ADAS-cog, adapted ADCS-ADL and Composite score; format: in vivo, human
# From the text: The present invention provides for the first time an AD treatment that is disease modifying. The effectiveness of the treatment according to the present invention is proven by the parameters required by the drug authorisation authorities, especially the EMEA and the US-FDA. For example, the EMEA guideline for AD treatment requires primary endpoints reflecting the cognitive and the functional domain. Accordingly, a combined (Composite) score is used for the clinical assessment of the present invention. This composite score combines two established scores, one for the cognitive function (ADAS-cog (Alzheimer's Disease Assessment Scale-cognitive subscale)) and one for the functional ability (ADCS-ADL (Alzheimer's Disease Co-operative Study—Activities of Daily Living Inventory)). The adapted ADAS-cog combines items that assess cognitive function. The adapted ADCS-ADL includes items that are sensitive to functional ability. […]
# Combined composite according to the present invention: =1.67*Word recall+1.35*Orientation+1.42*Word Recognition+0.55*Recall Instructions+0.81*Spoken Language+1.01*Word Finding+5.42*ONB+0.15*VPAL+0.19*Category Fluency+0.28*Belongings+0.35*Shopping+0.23*Hobbies+0.38*Beverage+0.37*Meal+0.23*Current Events+0.26*TV+0.33*Keeping Appointments+0.37*Travel+0.33*Alone+0.35*Appliance+0.49*Clothes+0.36*Read+0.62*Telephone+0.33*Writing
# The primary efficacy variables are the change from baseline (CFB) in cognition as measured by an adapted ADAS-cog, CFB in function as measured by an adapted ADCS-ADL and a combination of CFB in cognition and function as measured by a combined composite:
# ADAS-cog and other items included in the adapted ADAS-cog were measured at Visits 1, 2, 3, 5, 6, 7, 8, 9 and 10 or EDV. ADCS-ADL were measured at Visits 2, 5, 6, 7, 8, 9 and 10 or EDV. Items that contributing to the combined primary outcome were measured at Visits 2, 5, 6, 7, 8, 9 and 10 or EDV.
# The primary efficacy outcomes all range from 0 to 100. […] Before a composite was calculated, contributing items that are scored in the opposite direction were reversed. […]
# [2] = system: patients with early AD; assay: AFF006 clinical trial: MRI volume-based morphometry of hippocampus; format: in vivo, human; settings: 2 mg group of patients, FIG. 4
# From the text: EMEA and FDA criteria recommend newer techniques, such as MRI, especially atrophy of entorhinal or (para-) hippocampal cortex. With the present invention, PET (Positron emission tomography)-MRI was applied. More specifically, volume of right hippocampus (important for learning and memory of material that is difficult to verbalise) is used according to the present invention as significant AD biomarker for treatment success.
# Hippocampus (left and right), and whole lateral ventricle ROIs were delineated on an anatomical MRI template in order to generate the atlas for volumetric measures. The volumes of the hippocampus and lateral ventricles for each subject were determined using a fully-automated method which combines transformations derived from the nonlinear registration of the atlas labels to individual subject scans and subject-specific image information (Collins et al., J. Comput. Assist. Tomogr., 18: 192-205, 1994). Lateral ventricle and hippocampal segmentations that failed post-processing QC review were manually corrected. The total intracranial volume (TIV) was estimated from the brain mask generated during pre-processing and the average TIV (TIVavg) for each subject was determined by averaging the estimated TIV across visits. […]
# [3] = system: amyloid deposits; assay: Cerebral amyloid load by immunofluorescence (mAb 3A5) in Tg2576 mice; format: in vivo; settings: 6 monthly s.c. injections, sacrificed at 14 months of age
# [4] = target: BSA (Bos taurus, UniProt P02769); settings: pH 7.4; cited from earlier work
# [5] = system: Tg2576 mice; assay: Contextual fear conditioning (CFC) in Tg2576 mice; settings: 6 monthly s.c. injections, Alum equivalent to 2 mg/ml
# Chain of BSA (P02769 25-607): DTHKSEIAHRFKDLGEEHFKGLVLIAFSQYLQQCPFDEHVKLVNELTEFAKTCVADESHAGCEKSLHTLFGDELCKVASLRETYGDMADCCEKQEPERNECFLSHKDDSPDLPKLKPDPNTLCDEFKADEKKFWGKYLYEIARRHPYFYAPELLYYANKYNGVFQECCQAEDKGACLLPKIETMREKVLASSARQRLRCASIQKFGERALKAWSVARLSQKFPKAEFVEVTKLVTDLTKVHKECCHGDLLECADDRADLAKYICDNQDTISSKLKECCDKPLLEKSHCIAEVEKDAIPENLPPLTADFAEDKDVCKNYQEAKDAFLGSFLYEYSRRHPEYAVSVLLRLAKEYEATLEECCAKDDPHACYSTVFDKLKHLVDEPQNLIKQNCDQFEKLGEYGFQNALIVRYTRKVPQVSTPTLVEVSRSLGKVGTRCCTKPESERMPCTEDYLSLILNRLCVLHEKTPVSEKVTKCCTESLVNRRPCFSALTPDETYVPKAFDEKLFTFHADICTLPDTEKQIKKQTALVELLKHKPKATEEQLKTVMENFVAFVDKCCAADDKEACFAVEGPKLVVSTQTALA
substance,measurement,setting,value
aluminium oxyhydroxide,parameters informing on the progression of the disease (change in Composite score),"[1]; 2 mg group vs 1 mg group, all patients, FIG. 1",compares favourably
same,Adapted ADAS-cog: disease progression,"[1]; 2 mg group, over 18 months, FIG. 3",Slowing of disease progression
same,effect on disease progression (Composite score) in mild population,"[1]; mild population (baseline MMSE score of 24 and higher), 2 mg vs 1 mg, FIG. 2",most pronounced in the cohort of patients in earlier disease stages
same,MRI data (volume of right hippocampus),[2],statistically significant disease modifying effect
same,cerebral amyloid load (relative brain area covered by amyloid deposits),"[3]; IF-staining mAb 3A5, FIG. 8, listed as Alum",did not significantly alter amyloid deposition; also recorded: slight but insignificant reduction in Aβ deposition
same,cerebral amyloid load (relative brain area covered by amyloid deposits),"[3]; IF-staining mAb 3A5, FIG. 8, listed as aluminium-oxyhydroxide",without significantly changing cerebral Aβ levels
same,maximal binding capacity to BSA (pI 4.9),[4],2.2±0.1 mg protein/mg aluminum
same,"contextual memory and learning (CFC, % of time freezing)","[5]; FIG. 7, listed as Alum",showed similar effects as detectable with Aβ targeting vaccines
same,"contextual memory and learning (CFC, % of time freezing)","[5]; FIG. 7, listed as aluminium-oxyhydroxide",lower cognitive decline significantly
